Molecules are shown by their SMILES.

Results on 1 compound are retold here after paper PMC8197230, “Orientated Immobilization of FAD-Dependent Glucose Dehydrogenase on Electrode by Carbohydrate-Binding Module Fusion for Efficient Glucose Assay” (International Journal of Molecular Sciences, 2021).

For assay [1], the system named is T1, GDH-NL-CBM2.
T1 construct: gene FAD-GDH; secreted from Pichia pastoris GS115, Ni-purified
As to the kind of experiment: PMS/DCIP spectrophotometric assay at […] nm, Michaelis-Menten non-linear fit. To be noted: 0.1 M phosphate buffer pH 6.0, 37 °C; PMS and DCIP as electron acceptors; free enzyme. In kind it is biochemical, Aspergillus niger.

For assay [2], the system named is T2, GDH (wild-type FAD-GDH).
T2 construct: signal peptide (first 63 bp, 21 residues) removed; C-terminal His tag kept; secreted from Pichia pastoris GS115 (pPIC9k), glycosylated; Ni-purified
The assay is described as above. Conditions: 0.1 M phosphate buffer pH 6.0, 37 °C; PMS and DCIP as electron acceptors; free enzyme. In kind it is biochemical, Aspergillus niger.

Regarding `OC[C@H]1OC(O)[C@H](O)[C@@H](O)[C@@H]1O` (some centres unmarked) [glucose], the Michaelis constant (Km) in assay [1] came to 11.8 mM; in assay [2], 12.3 mM.
